Measured values taken from patent US11839610B2 (priority 2022, dated 2023).
Like-named read-outs stand apart in the source and are kept apart here.

Tested on: D614G S protein pseudovirus (nCoV-S-Luc-D614G) in ACE2-293T cells
Assay type: cell-based, SARS-CoV-2

## COc1cc2c3cc1Oc1c4c(cc5c1[C@H](Cc1ccc(cc1)Oc1cc(ccc1O)C[C@H]3N(C)CC2)N(C)CC5)OCO4 [Cepharanoline]
Conc. 0.1 μM
  Levels of viral infection, D614G, Ave.: 72.97%
Conc. 1 μM
  Levels of viral infection, D614G, Ave.: 39.14%
Conc. 10 μM
  Levels of viral infection, D614G, Ave.: −20.02%
read-out: 50% inhibitory concentrations (IC50) for viral infection, D614G
  IC50: 480 ± 90 nM
